Measured values reported in patent US12691112B2, “FGFR tyrosine kinase inhibitors for the treatment of urothelial carcinoma” (Janssen Pharmaceutica NV, priority 2019, dated 2026).

Key:
Type in all cases: in vivo, human
[1] = Effect of food on pharmacokinetics in healthy subjects; conditions: high-fat and high-calorie meal
[2] = test system: metastatic or surgically unresectable urothelial cancer harboring select FGFR genetic alterations; test: Phase 2 study NCT02365597: progression-free survival (Kaplan-Meier), investigator assessment
Protocol: The term “progression-free survival” is defined as the time from first dose to date of documented evidence of disease progression or death, whichever comes first.
(§1) Patients were contacted every 12 weeks for survival assessment.
(§2) The study was designed to enroll 180 patients with specified FGFR alterations. Of these, ≥88 were required in the selected regimen. […] Responses were assessed by investigators and an independent radiological review committee. Progression-free survival and overall survival were estimated using Kaplan-Meier product limit method. Data from patients who were progression free and alive or with unknown status were censored at last tumor assessment. Efficacy end points were analysed at primary analysis cut-off.

[3] = test system: metastatic or surgically unresectable urothelial cancer harboring select FGFR genetic alterations; test: Phase 2 study NCT02365597: overall survival (Kaplan-Meier); conditions: FGFR fusions (excluding mutations); 6 mg QD
Protocol: The term “overall survival” is defined as the time from first dose to the date of death. Data for patients who are alive or have unknown status is censored at the last date on which the patient is known to be alive.
as §1, §2

[4] = FGFR fusions (excluding mutations), 6 mg QD
[5] = FGFR fusions (excluding mutations), 8 mg QD
[6] = FGFR fusions (excluding mutations), 10 mg 7 on/7 off
[7] = FGFR fusions (excluding mutations), Total
[8] = FGFR mutations (excluding fusions), 6 mg QD
[9] = FGFR mutations (excluding fusions), 8 mg QD
[10] = FGFR mutations (excluding fusions), 10 mg 7 on/7 off
[11] = FGFR mutations (excluding fusions), Total
[12] = FGFR mutations and fusions, 6 mg QD
[13] = FGFR mutations and fusions, 10 mg 7 on/7 off
[14] = FGFR mutations and fusions, Total

COc1cc(OC)cc(N(CCNC(C)C)c2ccc3ncc(-c4cnn(C)c4)nc3c2)c1 [erdafitinib, N-(3,5-dimethoxy-phenyl)-N′-(1-methylethyl)-N-[3-(1-methyl-1H-pyrazol-4-yl)quinoxalin-6-yl]ethane-1,2-diamine]
effect of food on pharmacokinetics [1]: No clinically meaningful differences
6-month progression-free survival rate (95% CI) [2, 4]: 0.40 (0.12, 0.67)
12-month progression-free survival rate (95% CI) [2, 4]: 0.20 (0.03, 0.47)
18-month progression-free survival rate (95% CI) [2, 4]: 0.10 (0.01, 0.36)
Progression-free survival, Median (95% CI) [2, 4]: 5.54 (0.46, 11.10) months
Progression-free survival, Q1 [2, 4]: 4.50 months
6-month progression-free survival rate (95% CI) [2, 5]: 0.25 (0.10, 0.44)
12-month progression-free survival rate (95% CI) [2, 5]: 0.15 (0.04, 0.33)
18-month progression-free survival rate (95% CI) [2, 5]: 0 (NE, NE)
Progression-free survival, Median (95% CI) [2, 5]: 2.76 (1.51, 5.45) months
Progression-free survival, Q1 [2, 5]: 1.35 months
Progression-free survival, Q3 [2, 5]: 6.64 months
6-month progression-free survival rate (95% CI) [2, 6]: 0 (NE, NE)
12-month progression-free survival rate (95% CI) [2, 6]: 0 (NE, NE)
18-month progression-free survival rate (95% CI) [2, 6]: 0 (NE, NE)
Progression-free survival, Median (95% CI) [2, 6]: 2.09 (1.41, 2.76) months
Progression-free survival, Q1 [2, 6]: 1.41 months
Progression-free survival, Q3 [2, 6]: 2.76 months
6-month progression-free survival rate (95% CI) [2, 7]: 0.28 (0.15, 0.44)
12-month progression-free survival rate (95% CI) [2, 7]: 0.15 (0.05, 0.29)
18-month progression-free survival rate (95% CI) [2, 7]: 0.05 (0.00, 0.19)
Progression-free survival, Median (95% CI) [2, 7]: 4.27 (2.56, 5.52) months
Progression-free survival, Q1 [2, 7]: 1.51 months
Progression-free survival, Q3 [2, 7]: 7.00 months
6-month progression-free survival rate (95% CI) [2, 8]: 0.22 (0.12, 0.33)
12-month progression-free survival rate (95% CI) [2, 8]: 0.07 (0.02, 0.16)
18-month progression-free survival rate (95% CI) [2, 8]: 0.05 (0.01, 0.14)
Progression-free survival, Median (95% CI) [2, 8]: 5.09 (2.83, 5.42) months
Progression-free survival, Q1 [2, 8]: 1.77 months
Progression-free survival, Q3 [2, 8]: 5.55 months
6-month progression-free survival rate (95% CI) [2, 9]: 0.41 (0.29, 0.53)
12-month progression-free survival rate (95% CI) [2, 9]: 0.15 (0.06, 0.27)
Progression-free survival, Median (95% CI) [2, 9]: 5.55 (4.83, 7.26) months
Progression-free survival, Q1 [2, 9]: 2.83 months
Progression-free survival, Q3 [2, 9]: 8.44 months
6-month progression-free survival rate (95% CI) [2, 10]: 0.25 (0.10, 0.43)
12-month progression-free survival rate (95% CI) [2, 10]: 0.17 (0.05, 0.34)
18-month progression-free survival rate (95% CI) [2, 10]: 0.08 (0.01, 0.23)
Progression-free survival, Median (95% CI) [2, 10]: 4.93 (2.73, 5.55) months
Progression-free survival, Q1 [2, 10]: 2.69 months
Progression-free survival, Q3 [2, 10]: 7.06 months
6-month progression-free survival rate (95% CI) [2, 11]: 0.31 (0.24, 0.39)
12-month progression-free survival rate (95% CI) [2, 11]: 0.12 (0.07, 0.19)
18-month progression-free survival rate (95% CI) [2, 11]: 0.06 (0.03, 0.12)
Progression-free survival, Median (95% CI) [2, 11]: 5.36 (4.21, 5.52) months
Progression-free survival, Q1 [2, 11]: 2.73 months
Progression-free survival, Q3 [2, 11]: 8.25 months
6-month progression-free survival rate (95% CI) [2, 12]: 0.50 (0.06, 0.84)
12-month progression-free survival rate (95% CI) [2, 12]: 0.50 (0.06, 0.84)
Progression-free survival, Median (95% CI) [2, 12]: 9.10 (0.39, NE) months
Progression-free survival, Q1 [2, 12]: 2.97, NE months
6-month progression-free survival rate (95% CI) [2, 13]: 0 (NE, NE)
12-month progression-free survival rate (95% CI) [2, 13]: 0 (NE, NE)
18-month progression-free survival rate (95% CI) [2, 13]: 0 (NE, NE)
Progression-free survival, Median (95% CI) [2, 13]: 5.45 (1.45, 5.52) months
Progression-free survival, Q1 [2, 13]: 1.45 months
Progression-free survival, Q3 [2, 13]: 5.52 months
6-month progression-free survival rate (95% CI) [2, 14]: 0.29 (0.04, 0.61)
12-month progression-free survival rate (95% CI) [2, 14]: 0.29 (0.04, 0.61)
Progression-free survival, Median (95% CI) [2, 14]: 5.52 (0.39, 12.65) months
Progression-free survival, Q1 [2, 14]: 1.45 months
Progression-free survival, Q3 [2, 14]: 12.65 months
Median (95% CI) progression-free survival per investigator assessment ([2]; Regimen 1, 10 mg intermittent): 4.8 (2.7 to 5.5) months
Progression-free survival rate at 12 months ([2]; Regimen 1, 10 mg intermittent): 18%
Median (95% CI) progression-free survival per investigator assessment ([2]; Regimen 2, 6 mg continuous): 5.3 (4.1 to 5.5) months
Progression-free survival rate at 12 months ([2]; Regimen 2, 6 mg continuous): 11%
Progression-free survival rate at 12 months ([2]; Regimen 3, 8 mg continuous): 19%
median progression-free survival ([2]; Regimen 3, 8 mg continuous): 5.5 months
6-month overall survival rate (95% CI) [3]: 0.80 (0.41, 0.95)
12-month overall survival rate (95% CI) [3]: 0.46 (0.14, 0.73)
18-month overall survival rate (95% CI) [3]: 0.46 (0.14, 0.73)
Overall survival, Median (95% CI) [3]: 9.33 (0.46, NE) months
Overall survival, Q1 [3]: 7.92 months
